Results from publication PMC9558053, “Development of a novel high-throughput screen for the identification of new inhibitors of protein S-acylation” (The Journal of Biological Chemistry, 2022).

Target: T1, human zDHHC2 (Homo sapiens, UniProt Q9UIJ5)
T1 construct: expressed in transfected cells; host or cells: HEK293T
T1 sequence (Q9UIJ5 1-367): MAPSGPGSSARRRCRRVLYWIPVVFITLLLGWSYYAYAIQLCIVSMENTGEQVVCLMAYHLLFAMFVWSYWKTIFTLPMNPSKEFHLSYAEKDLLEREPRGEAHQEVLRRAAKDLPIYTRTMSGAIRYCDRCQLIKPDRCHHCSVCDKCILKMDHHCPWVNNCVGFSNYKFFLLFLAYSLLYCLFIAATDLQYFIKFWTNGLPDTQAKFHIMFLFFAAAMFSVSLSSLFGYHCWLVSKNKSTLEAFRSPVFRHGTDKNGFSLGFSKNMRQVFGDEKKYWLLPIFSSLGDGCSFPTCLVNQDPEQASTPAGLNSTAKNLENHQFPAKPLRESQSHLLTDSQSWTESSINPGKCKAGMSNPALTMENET
Test: S-acylation (autoacylation) of HA-zDHHC2 in HEK293T cells, click chemistry
Type: cell-based
Details: resynthesized UoS compounds, 25 μM, p < 0.001 vs DMSO
Description: Figure 8 Activity of TTZ-1 (UoS) and TTZ-2 (UoS) against human zDHHC2 autoacylation expressed in mammalian cells. HEK293T cells were transfected with either the control plasmid pEF-BOS-HA (pEF) or a plasmid encoding HA-tagged human zDHHC2 (zD2) for 24 h. Cells were then preincubated for 4 h with UoS compounds TTZ-1 (UoS) (A) or TTZ-2 (UoS) (B) (25 μM final) or DMSO control before metabolic labeling with 100 μM C16:0-azide for 4 h. Cells were lysed, and proteins having incorporated C16:0-azide were labeled by click chemistry with an alkyne-IR800 dye. Protein samples were then resolved by SDS-PAGE, and the gel was scanned for the detection of the click chemistry signal in the infrared-800 channel. […] Two independent experiments were performed in sextuplicate, and the quantification data were gathered on the graphs below each set of membranes. […]
HEK293T cells were plated on poly-D-lysine–coated 24-well plates (catalog no.: 356413; Corning BioCoat, VWR) and transfected with 2.4 μg of pEF-zDHHC2 plasmid (or the control empty plasmid pEF-BOS-HA) for the measurement of zDHHC2 autoacylation and 4.8 μl of Lipofectamine 2000 (Invitrogen). […] Membranes were first stained with Revert 700 total protein stain kit (catalog no.: 926-11016; LI-COR), imaged, destained, and then analyzed by immunoblotting. Signals were quantified with ImageStudio software (LI-COR). […]

SMILES | S-acylation of HA-zDHHC2 in HEK293T cells
CCCCCCCOc1ccc(C(=O)Nc2cccc3c2OC(c2nnn[nH]2)CN3)cc1 (centres unmarked) [TTZ-1, N-(2-(1H-Tetrazol-5-yl)-3,4-dihydro-2H-benzo[b][1,4]oxazin-8-yl)-4-(heptyloxy)benzamide] | significantly reduced
O=C(Nc1cccc2c1OC(c1nnn[nH]1)CN2)c1ccc(OCCCCc2ccccc2)cc1 (centres unmarked) [TTZ-2, N-(2-(1H-Tetrazol-5-yl)-3,4-dihydro-2H-benzo[b][1,4]oxazin-8-yl)-4-(4-phenylbutoxy)benzamide] | significantly reduced
